Results published in ChEMBL document CHEMBL1146044, “Synthesis, enzymatic inhibition, and cancer cell growth inhibition of novel delta-lactam-based histone deacetylase (HDAC) inhibitors” (Bioorg Med Chem Lett, 2006).
Activity calls are given as the source filed them. No cut-off for these calls is given here.

Experiments:
Type in all cases: functional
NCI-H23 = test: Antiproliferative activity against human NCI-H23 cells by SRB assay
HCT-15 = test: Antiproliferative activity against human HCT15 cells by SRB assay
MDA-MB-231 = test: Antiproliferative activity against human MDA-MB-231 cells by SRB assay
LOX IMVI = test: Antiproliferative activity against human LOX-IMVI cells by SRB assay
PC-3 = test: Antiproliferative activity against human PC3 cells by SRB assay
ACHN = test: Antiproliferative activity against human ACHN cells by SRB assay

SMILES | GI50 (NCI-H23) [µM] | GI50 (PC-3) | other results
COc1ccc(CN2CCC=C(CCC(=O)NO)C2=O)c(OC)c1 | > 10 |  | 
O=C(CCCCCCC(=O)Nc1ccccc1)NO [VORINOSTAT] |  |  | GI50 (HCT-15): 0.82 µM; GI50 (MDA-MB-231): 0.66 µM

Second part, led by results:

GI50 (NCI-H23) [µM] | GI50 (PC-3) | SMILES | other results
> 10 |  | O=C(CCC1=CCCN(CCc2ccccc2)C1=O)NO | 
> 10 | > 10 µM | O=C(CCC1=CCCN(Cc2ccccc2)C1=O)NO | GI50 (LOX IMVI): > 10 µM; GI50 (HCT-15; Homo sapiens, HCT-15): > 10 µM; GI50 (ACHN): > 10 µM
 | inactive | C=CCN1CCC=C(CCC(=O)NO)C1=O | 
